# Assay results reported in patent publication US4925868A, “4-Hydroxy-3-pyrrolin-2-ones and treatment of circulatory disorders therewith” (Takeda Chemical Industries, Ltd., priority 1986, dated 1990).
# How the values were obtained:
# mice = assay: Acute toxicity in mice; type: in vivo; settings: for sedation and ptosis: six mice per group
# Method: Male Crj-ICR mice (4-week-old, 21 to 26 g) were used. The animals, divided into groups, each consisting of six mice, were administered orally with compounds (4-b, 4-1) at the dosages of 300 and 1000 mg/kg, respectively. Then, each group was housed in a cage and observed for 24 hours.
# The test drugs were suspended in gum arabic and administered at a volume of 0.1 ml/10 g.
# [1] = tested on: lipid peroxide formation in rat brain tissue homogenate; assay: Activity to inhibit lipid peroxide formation in rat brain tissue homogenate (TBA method); type: biochemical, rat (male SD); settings: 10^-5 M; n = 3, mean; 5% brain homogenate, pH 7.4, 37° C., 1 hour
# Method: Activity to inhibit lipid peroxide formation in rat brain tissue homogenate: Male SD rats (12-week-old) were subjected to exsanguination under anesthesia with pentobarbital, then the brain was excised. The brain tissue was homogenized in a phosphate buffer (pH 7.4) to prepare a 5% homogenate. After incubation of the homogenate at 37° C. for 1 hour, the amount of lipid peroxides formed therein was determined by the thiobarbituric acid (TBA) method in accordance with the report of Ohkawa et al. on Analytical Biochemistry, 95, 351, (1979). The test drug was added to the 5% homogenate before incubation so as to make the final concentration to be 10^-5 M. The activity to inhibit the formation of lipid peroxide was judged by comparing the amount of the lipid peroxide in the treated group with that of the reference group to which was added the solvent (DMSO), and shown by % inhibition.
# rat hearts = assay: Activity to inhibit occurrence of ventricular arrhythmia during coronary artery occlusion-reperfusion in rat hearts; type: in vivo, rat (male SD); set-up: Ventricular fibrillation, incidence / Ventricular tachycardia, incidence: unit not given here; settings: for Ventricular fibrillation, incidence / Ventricular tachycardia, incidence: (10 min.) after reperfusion; for Ventricular fibrillation, incidence / Ventricular tachycardia, incidence / Ventricular fibrillation, duration / Ventricular tachycardia, duration: average ±SEM; for Mortality: killed animals/test animals; for effect on arrhythmia (in words): oral; for mortality due to VF (in words) / occurrence of arrhythmia (in words) / period of time during which arrhythmia lasted (in words) / frequency of occasional PVCs (in words): 10 mg/kg; for frequency of occasional PVCs (in words): vs vehicle around 10 times/minute
# Text: Activity to inhibit occurrence of ventricular arrhythmia during coronary artery occlusion-reperfusion in rat hearts
# Male SD rats (9- to 13-week old, 250 to 370 g) were used. The animals were subjected to thoractonomy under artificial respiration while anesthesia was maintained by administering pentobarbital. […] By recording standard limb lead II electrocardiograms, occurrence of ventricular arrhythmia was examined. […]
# Incidences of ventricular fibrillation and ventricular tachycardia are shown by the percentage of the number of animals presenting the symptoms relative to the number of animals subjected to the test, and the duration of the symptoms was shown by average ±SEM in seconds. Extrasystole is shown by the number of systole/min., and the mortality is shown by the percentage of the number of killed animals relative to the number of test animals.
compound,measurement,setting,value
"CCCCCCCCCCCCOc1ccc(C2=C(O)CN(C)C2=O)cc1 [Compound 4-b, N-methyl-3-(4-dodecyloxyphenyl)-4-hydroxy-3-pyrrolin-2-one]",time to recovery from sedation and ptosis,"mice; oral, 300 and 1000 mg/kg",≤ 3 h
same,deaths,"mice; oral, 300 and 1000 mg/kg, 24-hour observation",no test animals of either group were killed
same,sedation and ptosis,"mice; oral, 300 and 1000 mg/kg",observed on half number of the test animals
same,Inhibition rate of lipid peroxide formation,[1],97.9%
CCCCCCCCCCCCOc1ccc(C2=C(O)CN(Cc3ccccc3)C2=O)cc1 [Compound 4-f],Inhibition rate of lipid peroxide formation,[1],75.5%
CCCCCCCCCCCCOc1ccc(C2=C(O)CN(CC(C)C)C2=O)cc1 [Compound 4-c],Inhibition rate of lipid peroxide formation,[1],100%
CCCCCCCCCCCCOc1ccc(C2=C(O)CN(c3ccccc3)C2=O)cc1 [Compound 4-e],Inhibition rate of lipid peroxide formation,[1],100%
CCCCCCCCCCCCOc1ccc(C2=C(O)CN(Cc3ccc(C(=O)OC)cc3)C2=O)cc1 [Compound 4-j],Inhibition rate of lipid peroxide formation,[1],52.8%
"O=C1O[C@H]([C@@H](O)CO)C(O)=C1O [Vitamin C, reference compound]",Inhibition rate of lipid peroxide formation,[1],-71.6%
same,Extrasystole,rat hearts; 50 mg/kg,11.0 ± 0.8 times/min.
same,"Ventricular fibrillation, incidence",rat hearts; 50 mg/kg,5.4 ± 0.8
same,"Ventricular tachycardia, incidence",rat hearts; 50 mg/kg,9.5 ± 1.8
same,"Ventricular fibrillation, duration",rat hearts; 50 mg/kg,74.1 ± 36.0 s
same,"Ventricular tachycardia, duration",rat hearts; 50 mg/kg,12.0 ± 2.9 s
same,Mortality,rat hearts; 50 mg/kg,1/12
same,effect on arrhythmia (in words),rat hearts; 50 mg/kg,no significant effect
CCCCCCCCCCCCOc1ccc(C2=C(O)CN(CCc3ccccc3)C2=O)cc1 [Compound 4-g],Inhibition rate of lipid peroxide formation,[1],100%
CCCCCCCCCCCCOc1ccc(C2=C(O)CN(Cc3ccc(Cl)cc3)C2=O)cc1 [Compound 4-n],Inhibition rate of lipid peroxide formation,[1],100%
CCCCCCCCCCCCOc1ccc(C2=C(O)CN(Cc3ccsc3)C2=O)cc1 [Compound 4-i],Inhibition rate of lipid peroxide formation,[1],89.4%
CCCCCCCCCCCCCCCCCCOC1=C(O)CN(Cc2cc(OC)c(OC)c(OC)c2)C1=O [Compound 4-p],Extrasystole,rat hearts; 10 mg/Kg,3.3 ± 0.7 times/min.
same,"Ventricular fibrillation, incidence",rat hearts; 10 mg/Kg,0.9 ± 0.3
same,"Ventricular tachycardia, incidence",rat hearts; 10 mg/Kg,4.1 ± 1.2
same,"Ventricular fibrillation, duration",rat hearts; 10 mg/Kg,2.1 ± 1.3 s
same,"Ventricular tachycardia, duration",rat hearts; 10 mg/Kg,7.3 ± 2.4 s
same,Mortality,rat hearts; 10 mg/Kg,0/9
same,mortality due to VF (in words),rat hearts,low
same,occurrence of arrhythmia (in words),rat hearts,suppressed remarkably
same,period of time during which arrhythmia lasted (in words),rat hearts,shortened
same,frequency of occasional PVCs (in words),rat hearts,significantly less
CCCCCCCCCCCCOc1ccc(C2=C(O)CN(CCCc3ccccc3)C2=O)cc1 [Compound 4-h],Inhibition rate of lipid peroxide formation,[1],100%
CCCCCCCCCCCCOc1ccc(C2=C(O)CN(Cc3c(C)c(OC)c(C)c(C)c3OC)C2=O)cc1 [Compound 4-m],Inhibition rate of lipid peroxide formation,[1],100%
CCCCCCCCCCCCOc1ccc(C2=C(O)CN(Cc3ccc(C(=O)O)cc3)C2=O)cc1 [Compound 4-k],Inhibition rate of lipid peroxide formation,[1],63.8%
CCCCCCCCCCCCCCOc1ccc(C2=C(O)CN(C)C2=O)cc1 [Compound 4-a],Inhibition rate of lipid peroxide formation,[1],97.9%
Vitamin E [reference compound],Inhibition rate of lipid peroxide formation,[1],44.9%
same,Extrasystole,rat hearts; 50 mg/kg,7.0 ± 4.1 times/min.
same,"Ventricular fibrillation, incidence",rat hearts; 50 mg/kg,2.0 ± 0.7
same,"Ventricular tachycardia, incidence",rat hearts; 50 mg/kg,3.7 ± 1.5
same,"Ventricular fibrillation, duration",rat hearts; 50 mg/kg,43.4 ± 36.0 s
same,"Ventricular tachycardia, duration",rat hearts; 50 mg/kg,22.3 ± 9.7 s
same,Mortality,rat hearts; 50 mg/kg,1/10
same,effect on arrhythmia (in words),rat hearts; 50 mg/kg,no significant effect
CCCCCCCCCCCCOc1ccc(C2=C(O)CN(CCCCCCCCCCCC)C2=O)cc1 [Compound 4-d],Inhibition rate of lipid peroxide formation,[1],100%
CCCCCCCCCCCCOc1ccc(C2=C(O)CN(Cc3cc(OC)c(OC)c(OC)c3)C2=O)cc1 [Compound 4-l],deaths,"mice; mouse, in vivo",no test animals of either group were killed
same,time to recovery from sedation and ptosis,"mice; oral, 300 and 1000 mg/kg",≤ 3 h
same,sedation and ptosis,"mice; oral, 300 and 1000 mg/kg",observed on half number of the test animals
same,Inhibition rate of lipid peroxide formation,[1],96.7%
same,Extrasystole,rat hearts; 3 mg/Kg,5.4 ± 1.1 times/min.
same,"Ventricular fibrillation, incidence",rat hearts; 3 mg/Kg,0.8 ± 0.4
same,"Ventricular tachycardia, incidence",rat hearts; 3 mg/Kg,3.5 ± 0.8
same,"Ventricular fibrillation, duration",rat hearts; 3 mg/Kg,1.7 ± 1.2 s
same,"Ventricular tachycardia, duration",rat hearts; 3 mg/Kg,7.1 ± 2.2 s
same,Mortality,rat hearts; 3 mg/Kg,0/8
same,mortality due to VF (in words),rat hearts,low
same,occurrence of arrhythmia (in words),rat hearts,suppressed remarkably
same,period of time during which arrhythmia lasted (in words),rat hearts,shortened
same,frequency of occasional PVCs (in words),rat hearts,significantly less
